Where a SMILES comes first, the peptide text is derived from it. [ ]: non-standard residue; d: D form. dPhe(4-Cl) = N[C@H](Cc1ccc(Cl)cc1)C(=O)O; d2Nal = N[C@H](Cc1ccc2ccccc2c1)C(=O)O; dCit = NC(=O)NCCC[C@@H](N)C(=O)O; d3Pal = N[C@H](Cc1cccnc1)C(=O)O
Assay: Solubility in water according to DAB 10
Type: physicochemical
Text: The solubility in water for the active substance and the substance or substances forming the lipophilic matrix can be defined as specified in DAB 10 (Deutsches Arzneibuch, 10th edition with 3rd supplement 1994, Deutscher Apothekerverlag, Stuttgart und Govi Verlag, Frankfurt/Main, 2nd supplement (1993), IV Allgemeine Vorschriften, pp. 5-6, “Löslichkeit und Lösungsmittel”; see also Ph. Eur. Jul. 4, 2004). The solubility is defined by the number of parts by volume of solvent for 1 part by weight of substance or drug. The definition of “sparingly soluble” includes substances which require from 30 to 100 parts by volume of solvent for 1 part by weight of substance or drug, and the definition of “slightly soluble” includes substances which require from 100 to 1000 parts by volume of solvent for 1 part by weight of substance or drug.

Compound | solubility in water according to DAB 10 | solubility (equivalent of the DAB 10 parts) [µg/mL] | solubility in water, equivalent [µg/mL]
CC(=O)N[C@H](Cc1ccc2ccccc2c1)C(=O)N[C@H](Cc1ccc(Cl)cc1)C(=O)N[C@H](Cc1cccnc1)C(=O)N[C@@H](CO)C(=O)N[C@@H](Cc1ccc(O)cc1)C(=O)N[C@H](CCCNC(N)=O)C(=O)N[C@@H](CC(C)C)C(=O)N[C@@H](CCCNC(=N)N)C(=O)N1CCC[C@H]1C(=O)N[C@H](C)C(N)=O [Cetrorelix acetate] (Ac-[d2Nal][dPhe(4-Cl)][d3Pal]SY[dCit]LRP[dA]-NH2) | at least 1000 parts of water for 1 part of active substance | 1000 | 
Erythropoetin alfa: slightly soluble protein active substance | at least 500 parts of water for 1 part of active substance |  | 2000

Source: patent publication US8734849B2, “Multiparticle pharmaceutical dosage form containing a mucoadhesively formulated peptide or protein active substances method for producing said pharmaceutical dosage form” (Evonik Roehm GmbH, priority 2003, dated 2014)
